According to article PMC10313921, “A living ex vivo platform for functional, personalized brain cancer diagnosis” (Cell Reports Medicine, 2023):

Experiments:
[1] = test system: MB231Br (breast cancer metastasis to brain); assay: Drug screening of MB231Br tumor foci on OBSCs; type: cell-based, human
[2] = test system: LN229 (established GBM line); assay: Drug screening of LN229 tumor foci on OBSCs; type: cell-based, human
Method in brief: (§1)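 Drug effects on tumor foci grown on brain slices are quantified by bioluminescence three days after treatment, relative to untreated foci and day-one fluorescence. Efficacy versus slice toxicity is combined into a weighted drug sensitivity score.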

[3] = test system: U373WT (wild-type established GBM line); assay: Drug screening of U373WT tumor foci on OBSCs; type: cell-based, human; conditions: U373 WT on OBSCs
Method in brief: as §1

[4] = test system: U373KO (RAD18 knockout of U373WT via CRISPR); assay: Drug screening of U373KO tumor foci on OBSCs; type: cell-based, human; conditions: U373 KO on OBSCs
Method in brief: as §1

[5] = test system: GBM8 (high-passage patient-derived GBM line); assay: Drug screening of GBM8 tumor foci on OBSCs; type: cell-based, human
Method in brief: as §1

[6] = test system: MS21 (low-passage patient-derived GBM line); assay: Drug screening of MS21 tumor foci on OBSCs; type: cell-based, human
Method in brief: as §1

[7] = test system: PDIPG (low-passage pediatric patient-derived line); assay: Drug screening of PDIPG tumor foci on OBSCs; type: cell-based, human
Method in brief: as §1

[8] = test system: PIS patient tumor tissue (intracranial sarcoma); assay: Drug screening of uncultured patient tumor tissue PIS on OBSCs; type: cell-based, human; conditions: Homo sapiens, PIS on OBSCs
Procedure: (§2) Tumor cells were seeded onto OBSCs 2h after slicing as described above. One day after tumor seeding, six concentrations of each drug were diluted in the media underneath each culture insert, or XRad was applied using an X-Rad 320 Precision X-ray machine (n = 4 tumor foci per concentration; n ≥ 24 tumor foci per drug per cell line). Three days after treatment, the bioluminescence of live tumor cells was measured using an AMI optical imager (Spectral Instruments) and dose-response curves were generated. Tumor survival was normalized to day one tumor fluorescence and compared to an untreated control group.
(§3) To engraft onto OBSCs, the cryopreserved/thawed or fresh brain tumor tissue was filtered through a 100 μm cell strainer. Each 50 mg of tissue was transfected with 1mL mcherry-FLuc Lentivirus at 1.5e7 vg/ml with 1μL polybrene for 4h at 37°C. After incubation, the brain tumor tissue was washed with PBS three times to remove the residual virus and reconstituted in PBS with a final volume of 150 μL. Then the tissue solution was engrafted atop OBSCs at ∼0.5 mg tissue in 3 μL of PBS on each hemisphere of the slice. The OBSC engrafted with patient tumor tissue was incubated at 37°C with 5% CO2 and 95% humidity. The BSM was changed after 24h and subsequently every 3 days. Tumor treatment studies were executed as described above for tumor lines. The viability of the patient tissue was measured by an AMI optical imaging system with the addition of 1.5 mg/mL luciferin underneath the culture insert.
(§4) Several weighted parameters were factored into an overall drug sensitivity score.
(§5) For DSS parameters 1–6, therapeutic windows were calculated by comparing OBSC toxicity and tumor response at the doses where tumor kill passed through the DSS parameter (Table S1 and S3). For DSS parameter 7, the therapeutic window was calculated by comparing the slopes through the tumor EC50 and the OBSC tox EC50. For DSS parameter 8, the therapeutic window was calculated by comparing the areas under tumor kill and OBSC tox curves. Normalized therapeutic window ratios for DSS parameters 1–8 within each drug-tumor-OBSC interaction were calculated in the following manner: within each window, values ranged from +1 to −1, where values approaching +1 signify increasing tumor kill relative to normal tissue toxicity, and values approaching −1 indicate agents where tumors remained highly viable while toxicity to the normal OBSC tissue was elevated. DSS parameters 9–11 were determined based on the behavior of the tumor in response to the drug, as defined above.
(§6) All individually weighed parameters were added together to generate the DSS. Overall DSS from 0 to 100 signify increasing efficacy in tumor kill relative to OBSC toxicity, while scores from 0 to −100 describe scenarios in which tumors thrive more effectively than OBSCs for a given treatment. Dose-response values were calculated via linear interpolation of raw data, not from best-fit curve equations.

[9] = test system: PGBM patient tumor tissue (pediatric GBM); assay: Drug screening of uncultured patient tumor tissue PGBM on OBSCs; type: cell-based, human
Procedure: as §2, §3, §4, §5, §6

[10] = test system: PGBM-R patient tumor tissue (recurrent tumor from same patient as PGBM); assay: Drug screening of uncultured patient tumor tissue PGBM-R on OBSCs; type: cell-based, human
Procedure: as §2, §3, §4, §5, §6

[11] = test system: MG-II patient tumor tissue (WHO grade II meningioma); assay: Drug screening of uncultured patient tumor tissue MG-II on OBSCs; type: cell-based; conditions: Homo sapiens, dose required to kill 90% of the tumor
Procedure: as §2, §3, §4, §5, §6

[12] = area under the dose-response curve, trapezoidal rule
[13] = dose required to kill 10% of the tumor
[14] = dose required to kill 25% of the tumor
[15] = Homo sapiens, U373 MG, dose required to kill 50% of the tumor
[16] = Homo sapiens, U373 MG, dose required to kill 90% of the tumor
[17] = Homo sapiens, U373 MG, dosed day 1, survival via bioluminescence day 4, linear interpolation

Question: What does the source list for `CC(=O)Nc1cccc(-n2c(=O)n(C3CC3)c(=O)c3c(Nc4ccc(I)cc4F)n(C)c(=O)c(C)c32)c1` [Trametinib]?
Answer: EC50 ([1]; Homo sapiens, MB231BR on OBSCs, dose required to kill 50% of the tumor): 0.784 µM; EC90 ([1]; Homo sapiens, MB231BR on OBSCs, dose required to kill 90% of the tumor): > 10 µM; IC50 ([1]; Homo sapiens, MB231Br on OBSCs, dosed day 1, survival via bioluminescence day 4, linear interpolation): 0.78 µM; Killing at highest dose ([1]; MB231BR on OBSCs): 7.00E-01 fraction of tumor population killed; AUC ([1]; MB231BR on OBSCs, area under the dose-response curve, trapezoidal rule): 3.32E+01; Slope ([1]; MB231BR on OBSCs, slope through the EC50): -2.78E-01; Killing at highest dose [2]: 5.60E-01 fraction of tumor population killed; EC50 ([2]; Homo sapiens, LN-229, dose required to kill 50% of the tumor): 18.6 µM; EC90 ([2]; Homo sapiens, LN-229, dose required to kill 90% of the tumor): > 10 µM; IC50 ([2]; Homo sapiens, LN-229, dosed day 1, survival via bioluminescence day 4, linear interpolation): 19 µM; AUC [2, 12]: 4.96E+01; EC10 [2, 13]: 0.668 µM; EC25 [2, 14]: 3.46 µM; Slope ([2]; slope through the EC50): -1.47E-02; EC50 [3, 15]: > 10 µM; EC90 [3, 16]: > 10 µM; IC50 [3, 17]: > 10 µM; Killing at highest dose [3]: 4.80E-01 fraction of tumor population killed; AUC [3, 12]: 5.40E+01; EC10 [3, 13]: 0.625 µM; EC25 [3, 14]: 2.16 µM; Slope ([3]; slope through the EC50): -2.50E-04; EC50 [4, 15]: > 10 µM; EC90 [4, 16]: > 10 µM; IC50 [4, 17]: > 10 µM; Killing at highest dose [4]: 3.10E-01 fraction of tumor population killed; AUC [4, 12]: 8.91E+01; EC10 [4, 13]: 45.8 µM; EC25 [4, 14]: 84.5 µM; Slope ([4]; slope through the EC50): -3.88E-03; Killing at highest dose ([5]; GBM8 on OBSCs): 9.80E-01 fraction of tumor population killed; AUC ([5]; GBM8 on OBSCs, area under the dose-response curve, trapezoidal rule): 4.78E+00; EC10 ([5]; GBM8 on OBSCs, dose required to kill 10% of the tumor): 0.0313 µM; EC25 ([5]; GBM8 on OBSCs, dose required to kill 25% of the tumor): 0.0781 µM; EC75 ([5]; GBM8 on OBSCs, dose required to kill 75% of the tumor): 0.779 µM; Slope ([5]; GBM8 on OBSCs, slope through the EC50): -6.33E-01; EC50 ([5]; Homo sapiens): 0.384 µM; EC90 ([5]; Homo sapiens): 1.67 µM; IC50 ([5]; Homo sapiens): 0.38 µM; EC50 ([6]; Homo sapiens): > 10 µM; EC90 ([6]; Homo sapiens): > 10 µM; IC50 ([6]; Homo sapiens): > 10 µM; Killing at highest dose ([6]; MS21 on OBSCs): -5.00E-02 fraction of tumor population killed; AUC ([6]; MS21 on OBSCs, area under the dose-response curve, trapezoidal rule): 1.26E+02; EC50 ([7]; Homo sapiens): > 10 µM; EC90 ([7]; Homo sapiens): > 10 µM; IC50 ([7]; Homo sapiens): > 10 µM; Killing at highest dose ([7]; PDIPG on OBSCs): 1.70E-01 fraction of tumor population killed; AUC ([7]; PDIPG on OBSCs, area under the dose-response curve, trapezoidal rule): 8.73E+01; EC10 ([7]; PDIPG on OBSCs, dose required to kill 10% of the tumor): 30 µM; Slope ([7]; PDIPG on OBSCs, slope through the EC50): -1.00E-03; EC50 ([8]; dose required to kill 50% of the tumor): > 100 µM; EC90 ([8]; dose required to kill 90% of the tumor): > 10 µM; EC50 ([9]; Homo sapiens, PGBM on OBSCs, dose required to kill 50% of the tumor): > 100 µM; EC90 ([9]; Homo sapiens, PGBM on OBSCs, dose required to kill 90% of the tumor): > 10 µM; Killing at highest dose ([9]; PGBM patient tissue on OBSCs, 72 h): about one-third; DSS (drug sensitivity score) ([9]; PGBM patient tissue, scale -100 to +100): 16; EC90 ([10]; Homo sapiens, PGBM-R on OBSCs, dose required to kill 90% of the tumor): > 10 µM; increase of DSS in the recurrent tumor ([10]; PGBM-R relative to PGBM): 58 points; EC90 [11]: > 10 µM
